In patent US20250320193A1, “OXOISOINDOLINYL SUBSTITUTED PIPERIDINEDIONE DERIVATIVE AND USE THEREOF” (GLUETACS THERAPEUTICS (SHANGHAI) CO., LTD., priority 2022, published 2025):

Key:
IKZF1 = IKZF1 (Homo sapiens (Human), UniProt Q13422+Q96SW2); experiment: Western blot, substrate protein expression in hPBMC: IKZF1; type: cell-based; conditions: for substrate protein remaining % IKZF1: hPBMC, compound 500 nM, 24 hours, Western blot; for concentration at which IKZF1 protein was significantly degraded (Western blot, FIG. 1): hPBMCs
IKZF1, sequence (Q13422 whole entry): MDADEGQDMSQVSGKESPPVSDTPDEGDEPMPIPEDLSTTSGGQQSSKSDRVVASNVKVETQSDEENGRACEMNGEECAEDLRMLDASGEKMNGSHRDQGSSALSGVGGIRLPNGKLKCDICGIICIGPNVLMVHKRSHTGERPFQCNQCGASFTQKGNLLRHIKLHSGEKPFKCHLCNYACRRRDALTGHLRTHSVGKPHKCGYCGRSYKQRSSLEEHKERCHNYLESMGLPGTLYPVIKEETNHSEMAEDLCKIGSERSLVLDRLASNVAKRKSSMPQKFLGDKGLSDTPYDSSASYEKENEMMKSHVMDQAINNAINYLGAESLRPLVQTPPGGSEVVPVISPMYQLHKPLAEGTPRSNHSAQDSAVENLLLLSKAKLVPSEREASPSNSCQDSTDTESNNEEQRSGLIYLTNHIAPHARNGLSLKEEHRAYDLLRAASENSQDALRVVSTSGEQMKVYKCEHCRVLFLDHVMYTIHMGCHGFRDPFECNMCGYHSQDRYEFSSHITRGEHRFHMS
IKZF1, sequence (Q96SW2 whole entry): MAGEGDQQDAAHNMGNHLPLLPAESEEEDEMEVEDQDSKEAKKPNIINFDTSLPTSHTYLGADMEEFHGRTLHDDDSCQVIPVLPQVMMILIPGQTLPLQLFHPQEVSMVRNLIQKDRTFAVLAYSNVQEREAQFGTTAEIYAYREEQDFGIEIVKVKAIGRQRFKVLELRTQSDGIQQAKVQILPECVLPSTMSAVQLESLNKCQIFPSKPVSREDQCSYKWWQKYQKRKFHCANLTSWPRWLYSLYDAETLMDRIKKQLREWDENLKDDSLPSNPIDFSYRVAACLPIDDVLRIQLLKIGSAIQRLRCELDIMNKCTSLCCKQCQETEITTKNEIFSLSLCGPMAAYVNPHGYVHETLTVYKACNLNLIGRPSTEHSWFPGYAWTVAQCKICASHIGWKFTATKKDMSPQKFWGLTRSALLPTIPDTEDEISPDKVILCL
IKZF1, sequence (Q16531 whole entry partner): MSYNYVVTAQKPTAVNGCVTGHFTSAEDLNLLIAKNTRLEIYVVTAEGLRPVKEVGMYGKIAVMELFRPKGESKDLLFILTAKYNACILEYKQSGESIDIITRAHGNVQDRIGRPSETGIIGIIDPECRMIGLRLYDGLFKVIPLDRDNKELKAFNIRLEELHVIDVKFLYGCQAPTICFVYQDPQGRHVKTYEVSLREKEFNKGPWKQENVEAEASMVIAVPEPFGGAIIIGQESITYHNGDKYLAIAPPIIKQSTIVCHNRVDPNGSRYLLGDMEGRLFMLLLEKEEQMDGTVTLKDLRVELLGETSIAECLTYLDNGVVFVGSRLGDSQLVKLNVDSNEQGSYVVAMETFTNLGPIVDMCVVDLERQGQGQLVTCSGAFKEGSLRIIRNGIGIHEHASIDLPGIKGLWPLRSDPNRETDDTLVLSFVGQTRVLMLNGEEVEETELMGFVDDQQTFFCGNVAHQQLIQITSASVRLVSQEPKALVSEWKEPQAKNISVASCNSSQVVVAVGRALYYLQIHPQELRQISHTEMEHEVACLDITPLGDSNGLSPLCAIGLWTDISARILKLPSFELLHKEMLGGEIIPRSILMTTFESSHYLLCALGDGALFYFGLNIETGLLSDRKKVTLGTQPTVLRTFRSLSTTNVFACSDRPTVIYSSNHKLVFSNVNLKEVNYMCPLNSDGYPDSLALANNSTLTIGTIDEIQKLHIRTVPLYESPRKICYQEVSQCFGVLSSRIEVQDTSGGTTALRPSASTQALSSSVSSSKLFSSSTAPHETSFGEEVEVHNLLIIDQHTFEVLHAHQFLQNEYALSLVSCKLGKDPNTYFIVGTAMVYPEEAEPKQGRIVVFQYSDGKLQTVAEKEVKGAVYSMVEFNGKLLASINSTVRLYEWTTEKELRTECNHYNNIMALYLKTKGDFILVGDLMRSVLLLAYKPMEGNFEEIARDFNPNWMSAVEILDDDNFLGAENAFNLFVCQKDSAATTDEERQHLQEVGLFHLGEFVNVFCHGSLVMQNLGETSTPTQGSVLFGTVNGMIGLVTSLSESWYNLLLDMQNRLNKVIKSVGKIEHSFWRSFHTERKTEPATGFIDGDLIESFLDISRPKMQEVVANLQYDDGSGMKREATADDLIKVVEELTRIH
How it was run: (§1)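 hPBMC, 1×10^6 cells/mL, 24 h compound exposure; RIPA lysis, BCA protein assay, SDS-PAGE, NC membrane immunoblot. Densitometry vs internal control → % protein remaining; degradation % = 100% − remaining; DC50 = conc. at 50% of DMSO band signal.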

GSPT1 = GSPT1 (Homo sapiens (Human), UniProt P15170+Q96SW2); experiment: Western blot, substrate protein expression in hPBMC: GSPT1; type: cell-based; conditions: for substrate protein remaining % GSPT1: hPBMC, compound 500 nM, 24 hours, Western blot; for concentration at which GSPT1 protein was clearly/significantly degraded (Western blot, FIG. 1): hPBMCs
GSPT1, sequence (P15170 whole entry): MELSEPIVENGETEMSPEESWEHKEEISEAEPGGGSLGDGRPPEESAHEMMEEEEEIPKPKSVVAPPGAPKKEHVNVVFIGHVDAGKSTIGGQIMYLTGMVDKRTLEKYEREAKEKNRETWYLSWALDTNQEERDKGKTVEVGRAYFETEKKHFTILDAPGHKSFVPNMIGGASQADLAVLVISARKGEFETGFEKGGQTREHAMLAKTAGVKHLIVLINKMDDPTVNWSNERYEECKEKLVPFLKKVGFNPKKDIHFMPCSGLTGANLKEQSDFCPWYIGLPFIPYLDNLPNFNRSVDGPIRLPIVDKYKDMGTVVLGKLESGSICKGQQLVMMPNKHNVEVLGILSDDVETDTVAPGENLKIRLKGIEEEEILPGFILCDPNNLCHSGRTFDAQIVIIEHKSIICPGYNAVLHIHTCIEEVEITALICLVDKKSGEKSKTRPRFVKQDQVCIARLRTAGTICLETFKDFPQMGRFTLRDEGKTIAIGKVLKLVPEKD
GSPT1, sequence (Q96SW2 whole entry): as the sequence (Q96SW2 whole entry) above
GSPT1, sequence (Q16531 whole entry partner): as the sequence (Q16531 whole entry partner) above
How it was run: as §1

IKZF3 = IKZF3 (Homo sapiens (Human), UniProt Q96SW2+Q9UKT9); experiment: Western blot, substrate protein expression in hPBMC: IKZF3; type: cell-based; conditions: for substrate protein remaining % IKZF3: hPBMC, compound 500 nM, 24 hours, Western blot; for concentration at which IKZF3 protein was significantly degraded (Western blot, FIG. 1): hPBMCs
IKZF3, sequence (Q9UKT9 whole entry): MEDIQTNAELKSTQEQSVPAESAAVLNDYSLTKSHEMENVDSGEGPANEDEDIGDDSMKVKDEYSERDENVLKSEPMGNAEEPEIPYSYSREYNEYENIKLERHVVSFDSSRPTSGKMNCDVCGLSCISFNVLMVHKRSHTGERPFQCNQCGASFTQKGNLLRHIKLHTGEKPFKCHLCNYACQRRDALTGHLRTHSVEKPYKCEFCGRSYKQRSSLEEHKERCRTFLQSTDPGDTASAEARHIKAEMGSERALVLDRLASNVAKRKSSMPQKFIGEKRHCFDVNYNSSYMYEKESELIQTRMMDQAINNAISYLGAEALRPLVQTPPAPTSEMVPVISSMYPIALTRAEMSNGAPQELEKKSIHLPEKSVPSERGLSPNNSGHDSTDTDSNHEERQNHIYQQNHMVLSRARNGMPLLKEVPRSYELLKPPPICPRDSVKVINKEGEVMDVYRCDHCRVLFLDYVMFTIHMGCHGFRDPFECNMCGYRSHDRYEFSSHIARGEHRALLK
IKZF3, sequence (Q96SW2 whole entry): as the sequence (Q96SW2 whole entry) above
IKZF3, sequence (Q16531 whole entry partner): as the sequence (Q16531 whole entry partner) above
How it was run: as §1

[1] = system: H146 cells (human small cell lung carcinoma cells); experiment: Tumor cell proliferation inhibition, CCK-8; type: cell-based; conditions: NCI-H146, H146 cells, CCK-8, read-out: inhibitory activity (IC50, nM) H146
Procedure: (§2) The tumor cells used herein were cultured in a cell culture medium listed in table 2 at 37° C. in an incubator with 5% CO2. Prior to experimentation, all cells used were correctly identified by STR profiling, and tested negative for mycoplasma through routine screenings.
(§3) IC50 values of the compounds of the present disclosure (including the compounds in Table 1 and the Examples 1-305 compounds) were measured using the Meilun Cell Counting Kit-8 kit from Dalian Meilun Biotech Co., Ltd. Assay details are as follows: tumor cells were seeded in a 96-well plate at a density listed in Table 5. After 24 h, 100 μL of the inoculated cells were treated with 0.5 μL of the compounds of the present disclosure (including the compounds in Table 1 and the Examples 1-305 compounds) at 10 different successively decreasing concentrations (starting at the highest concentration of 10 μM; 5-fold serial dilutions). After the cells were treated with the compounds of the present disclosure for a period of time, the cell viability detection reagent was added to the culture medium for cell viability assessment according to the instructions provided with the CCK-8 kit. […] The growth inhibition of the compounds of the present disclosure on cells was plotted by Prism Graphpad software, and the IC50 values of the compounds of the present disclosure were calculated therefrom.

[2] = system: MM.1S cells (human multiple myeloma cells); experiment: Tumor cell proliferation inhibition, CCK-8; type: cell-based; conditions: MM1.S, MM.1S cells, CCK-8, read-out: inhibitory activity (IC50, nM) MM.1S
Procedure: as §2, §3

[3] = system: TMD8 cells (human diffuse large B-cell lymphoma cells); experiment: Tumor cell proliferation inhibition, CCK-8; type: cell-based; conditions: TMD8 cells, CCK-8, read-out: inhibitory activity (IC50, nM) TMD8
Procedure: as §2, §3

[4] = system: MDA-MB-231 cells (human breast adenocarcinoma cells); experiment: Tumor cell proliferation inhibition, CCK-8; type: cell-based; conditions: MDA-MB-231 cells, CCK-8, read-out: inhibitory activity (IC50, nM) MDA-MB-231
Procedure: as §2, §3

[5] = molecular target: human Cereblon WT GST-tagged protein (Homo sapiens (Human), UniProt Q96SW2); experiment: CRBN-binding affinity, HTRF (CEREBLON BINDING kit, CISBIO); conditions: HTRF inhibitory activity
human Cereblon WT GST-tagged protein, sequence (Q96SW2 whole entry): as the sequence (Q96SW2 whole entry) above
How it was run: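 HTRF competition format: test compound displaces Thalidomide-Red from GST-tagged human Cereblon WT, detected with a Eu-labelled anti-GST antibody. Percent CRBN binding inhibition was derived from the 620 nm signal, normalized to solvent-control and protein-free blank wells.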

O=C1CCC(N2Cc3cc(CN4CCC(N(c5ccccc5)c5ccccn5)CC4)ccc3C2=O)C(=O)N1 (stereo not shown) [GT-04525, 3-(1-oxo-5-((4-(phenyl(pyridin-2-yl)amino)piperidin-1-yl)methyl)isoindolin-2-yl)piperidine-2,6-dione] was tested, and the “substrate protein remaining % IKZF1” value (IKZF1) was “A (A represents 0% ≤ substrate protein remaining % ≤ 50%)”, the “concentration at which IKZF1 protein was significantly degraded (Western blot, FIG. 1)” value (IKZF1) was “below 50 nM” and the “substrate protein remaining % GSPT1” value (GSPT1) was “A (A represents 0% ≤ substrate protein remaining % ≤ 50%)”. For the same molecule, the “concentration at which GSPT1 protein was clearly/significantly degraded (Western blot, FIG. 1)” value (GSPT1) was “below 50 nM”, the “substrate protein remaining % IKZF3” value (IKZF3) was “A (A represents 0% ≤ substrate protein remaining % ≤ 50%)” and the “concentration at which IKZF3 protein was significantly degraded (Western blot, FIG. 1)” value (IKZF3) was “below 50 nM”. The IC50 [1] was 1 to 10 nM, the IC50 [2] was less than 1 nM and the IC50 [3] was 1 to 10 nM. The IC50 [4] was 1 to 10 nM and the IC50 [5] was less than 500 nM.
O=C1CCC(N2C(=O)c3ccc(CN4CCC(N(c5ccccc5)c5ccccc5)CC4)cc3C2=O)C(=O)N1 (stereo not shown) [GT-05741, 2-(2,6-dioxopiperidin-3-yl)-5-((4-(diphenylamino)piperidin-1-yl)methyl) isoindoline-1,3-dione] was tested, and the “substrate protein remaining % IKZF1” value (IKZF1) was “A (A represents 0% ≤ substrate protein remaining % ≤ 50%)”, the “substrate protein remaining % GSPT1” value (GSPT1) was “A (A represents 0% ≤ substrate protein remaining % ≤ 50%)” and the “substrate protein remaining % IKZF3” value (IKZF3) was “A (A represents 0% ≤ substrate protein remaining % ≤ 50%)”. For the same molecule, the IC50 [1] was 50 to 100 nM, the IC50 [2] was 10 to 50 nM and the IC50 [4] was 100 to 500 nM.
O=C1CCC(N2Cc3c(ccc(CN4CCC(N(c5ccccc5)c5ccccn5)CC4)c3F)C2=O)C(=O)N1 (stereo not shown) [GT-05856, 3-(4-fluoro-1-oxo-5-((4-(phenyl(pyridin-2-yl)amino)piperidin-1-yl)methyl)isoindolin-2-yl)piperidine-2,6-dione] was tested, and the “substrate protein remaining % IKZF1” value (IKZF1) was “A (A represents 0% ≤ substrate protein remaining % ≤ 50%)”, the “concentration at which IKZF1 protein was significantly degraded (Western blot, FIG. 1)” value (IKZF1) was “below 50 nM” and the “substrate protein remaining % GSPT1” value (GSPT1) was “A (A represents 0% ≤ substrate protein remaining % ≤ 50%)”. The “concentration at which GSPT1 protein was clearly/significantly degraded (Western blot, FIG. 1)” value (GSPT1) was “below 50 nM”, the “substrate protein remaining % IKZF3” value (IKZF3) was “A (A represents 0% ≤ substrate protein remaining % ≤ 50%)” and the “concentration at which IKZF3 protein was significantly degraded (Western blot, FIG. 1)” value (IKZF3) was “below 50 nM”. It also gave an IC50 [1] of 1 to 10 nM, an IC50 [2] of less than 1 nM and an IC50 [3] of 1 to 10 nM. For the same molecule, the IC50 [4] was 1 to 10 nM and the IC50 [5] was less than 500 nM.
In the case of O=C1CCC(N2Cc3cc(CN4CCC(N(c5ccccc5)c5ccccn5)CC4)c(F)cc3C2=O)C(=O)N1 (stereo not shown) [GT-05857, 3-(6-fluoro-1-oxo-5-((4-(phenyl(pyridin-2-yl)amino)piperidin-1-yl)methyl)isoindolin-2-yl)piperidine-2,6-dione], the “substrate protein remaining % IKZF1” value (IKZF1) is reported as “A (A represents 0% ≤ substrate protein remaining % ≤ 50%)”, the “concentration at which IKZF1 protein was significantly degraded (Western blot, FIG. 1)” value (IKZF1) is reported as “below 50 nM” and the “substrate protein remaining % GSPT1” value (GSPT1) is reported as “A (A represents 0% ≤ substrate protein remaining % ≤ 50%)”. The “concentration at which GSPT1 protein was clearly/significantly degraded (Western blot, FIG. 1)” value (GSPT1) was “below 50 nM”, the “substrate protein remaining % IKZF3” value (IKZF3) was “A (A represents 0% ≤ substrate protein remaining % ≤ 50%)” and the “concentration at which IKZF3 protein was significantly degraded (Western blot, FIG. 1)” value (IKZF3) was “below 50 nM”. The IC50 [1] was 1 to 10 nM, the IC50 [2] was less than 1 nM and the IC50 [3] was 1 to 10 nM. For the same molecule, the IC50 [4] was 1 to 10 nM and the IC50 [5] was less than 500 nM.
O=C1CCC(N2Cc3cc(N4C5CCC4CN(C(c4ccccc4)c4ccccc4)C5)ccc3C2=O)C(=O)N1 (stereo not shown) [GT-05866, 3-(5-(3-benzhydryl-3,8-diazabicyclo[3.2.1]octan-8-yl)-1-oxoisoindolin-2-yl)piperidine-2,6-dione] was tested, and the “substrate protein remaining % IKZF1” value (IKZF1) was “B (B represents substrate protein remaining % > 50%)”, the “substrate protein remaining % GSPT1” value (GSPT1) was “A (A represents 0% ≤ substrate protein remaining % ≤ 50%)” and the “substrate protein remaining % IKZF3” value (IKZF3) was “A (A represents 0% ≤ substrate protein remaining % ≤ 50%)”. For the same molecule, the IC50 [1] was 10 to 50 nM, the IC50 [2] was 1 to 10 nM and the IC50 [3] was 50 to 100 nM. For the same molecule, the IC50 [4] was 10 to 50 nM and the IC50 [5] was 500 to 1000 nM.
For O=C1CCC(N2Cc3cc(CN4C[C@@H]5C[C@H]4CN5C(c4ccccc4)c4ccccc4)c(F)cc3C2=O)C(=O)N1 (stereo partly drawn) [GT-05894, 3-(5-(((1S,4S)-5-benzhydryl-2,5-diazabicyclo[2.2.1]heptan-2-yl)methyl)-6-fluoro-1-oxoisoindolin-2-yl)piperidine-2,6-dione], the “substrate protein remaining % IKZF1” value (IKZF1) was “A (A represents 0% ≤ substrate protein remaining % ≤ 50%)”, the “substrate protein remaining % GSPT1” value (GSPT1) was “A (A represents 0% ≤ substrate protein remaining % ≤ 50%)” and the “substrate protein remaining % IKZF3” value (IKZF3) was “B (B represents substrate protein remaining % > 50%)”. It also gave an IC50 [1] of 10 to 50 nM, an IC50 [2] of 1 to 10 nM and an IC50 [3] of 500 to 1000 nM. For the same molecule, the IC50 [4] was 50 to 100 nM and the IC50 [5] was less than 500 nM.
O=C1CCC(N2Cc3cc(C(=O)N4CCN(C(c5ccccc5F)c5ccccc5F)CC4)ccc3C2=O)C(=O)N1 (stereo not shown) [GT-06104, 3-(5-(4-(bis(2-fluorophenyl)methyl)piperazine-1-carbonyl)-1-oxoisoindolin-2-yl)piperidine-2,6-dione] was tested, and the “substrate protein remaining % IKZF1” value (IKZF1) was “A (A represents 0% ≤ substrate protein remaining % ≤ 50%)”, the “substrate protein remaining % GSPT1” value (GSPT1) was “A (A represents 0% ≤ substrate protein remaining % ≤ 50%)” and the “substrate protein remaining % IKZF3” value (IKZF3) was “B (B represents substrate protein remaining % > 50%)”. It also gave an IC50 [1] of 100 to 500 nM, an IC50 [2] of 10 to 50 nM and an IC50 [4] of 500 to 1000 nM. For the same molecule, the IC50 [5] was less than 500 nM.
With O=C1CCC(N2C(=O)c3ccc(CN4CCN(C(c5cccc(F)c5)c5cccc(F)c5)CC4)cc3C2=O)C(=O)N1 (stereo not shown) [GT-06118, 5-((4-(bis(3-fluorophenyl)methyl)piperazin-1-yl)methyl)-2-(2,6-dioxopiperidin-3-yl) isoindoline-1,3-dione] the “substrate protein remaining % IKZF1” value (IKZF1) was “A (A represents 0% ≤ substrate protein remaining % ≤ 50%)”, the “substrate protein remaining % GSPT1” value (GSPT1) was “A (A represents 0% ≤ substrate protein remaining % ≤ 50%)” and the “substrate protein remaining % IKZF3” value (IKZF3) was “A (A represents 0% ≤ substrate protein remaining % ≤ 50%)”. It also gave an IC50 [1] of 100 to 500 nM, an IC50 [2] of 50 to 100 nM and an IC50 [3] of 500 to 1000 nM.
With O=C1CCC(N2Cc3cc(CN4CCC(N(c5ccccc5)c5ccccc5)CC4)cc(F)c3C2=O)C(=O)N1 (stereo not shown) [GT-06133, 3-(5-((4-(diphenylamino)piperidin-1-yl)methyl)-7-fluoro-1-oxoisoindolin-2-yl)piperidine-2,6-dione] the “substrate protein remaining % IKZF1” value (IKZF1) was “B (B represents substrate protein remaining % > 50%)”, the “substrate protein remaining % GSPT1” value (GSPT1) was “A (A represents 0% ≤ substrate protein remaining % ≤ 50%)” and the “substrate protein remaining % IKZF3” value (IKZF3) was “B (B represents substrate protein remaining % > 50%)”. For the same molecule, the IC50 [1] was 100 to 500 nM, the IC50 [2] was 10 to 50 nM and the IC50 [4] was 500 to 1000 nM. The IC50 [5] was less than 500 nM.
O=C1CCC(N2C(=O)c3ccc(CN4CCN(C(c5cc(F)cc(F)c5)c5cc(F)cc(F)c5)CC4)cc3C2=O)C(=O)N1 (stereo not shown) [GT-06596, 5-((4-(bis(3,5-difluorophenyl)methyl)piperazin-1-yl)methyl)-2-(2,6-dioxopiperidin-3-yl) isoindoline-1,3-dione] was tested, and the “substrate protein remaining % IKZF1” value (IKZF1) was “A (A represents 0% ≤ substrate protein remaining % ≤ 50%)”, the “substrate protein remaining % GSPT1” value (GSPT1) was “A (A represents 0% ≤ substrate protein remaining % ≤ 50%)” and the “substrate protein remaining % IKZF3” value (IKZF3) was “A (A represents 0% ≤ substrate protein remaining % ≤ 50%)”. The IC50 [1] was 100 to 500 nM, the IC50 [2] was 50 to 100 nM and the IC50 [3] was 500 to 1000 nM. It also gave an IC50 [4] of 100 to 500 nM.
